test system: MV4-11; experiment: cell viability (% survival relative to DMSO control, bortezomib = 0%); higher = less cytotoxic; conditions: 1 nM; 72 h
Procedure, shortened: (§1)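 Percent survival figures are means of duplicate wells. They were obtained by CellTiter-Glo luminescence after 10 AML and 5 CML cell lines spent 72 h at 37 °C with 5% CO2 in 384-well plates with compounds at 1, 10, 100, 1000 or 10000 nM. Vehicle was set to 100% and a 10 µM positive control to 0%.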

Structure (SMILES)	cell viability [%]
CCCCC/C=C\C/C=C\C/C=C\C/C=C\CCCC(=O)C(F)(F)F [Arachidonyl trifluoromethyl ketone]	99.4
O=[As]O[As]=O (stereo not given) [Arsenic trioxide]	97

same assay, conditions: 10 nM; 72 h

Structure (SMILES)	cell viability [%]
CC(=O)N1CCN(c2ccc(OC[C@@H]3CO[C@@](Cn4ccnc4)(c4ccc(Cl)cc4Cl)O3)cc2)CC1 (racemic) [Ketoconazole]	94.3
CCC(CC#N)OC(=O)N[C@@H](C)c1cccc(NC(=O)Nc2ccc(-c3cnco3)c(OC)c2)c1 (stereo in doubt) [AVN-944]	96.4
OC[C@H]1OC(O)C[C@@H](O)[C@@H]1O (stereo not given in full) [2-deoxyglucose]	91.4
O=C(C(=O)c1ccc(Br)cc1)c1ccc(Br)cc1 [4,4'-Dibromobenzil]	92.1
NS(=O)(=O)c1ccc(NC(=O)Cc2ccccc2)cc1 [4-(2-Phenylacetamido)Benzenesulfonamide]	109
NCc1ccc(S(N)(=O)=O)cc1 [4-Homosulfanilamide]	87.5
Oc1ncc(F)c(O)n1 [5-fluorouracil]	111
NCc1ccc(-c2cccnc2)s1 [(5-Pyrid-3-YLTHIEN-2-YL)METHYLAMINE]	123
CC(=O)N[C@@H](CS)C(=O)O [Acetylcysteine]	102
CCCCC/C=C\C/C=C\C/C=C\C/C=C\CCCC(=O)C(F)(F)F [Arachidonyl trifluoromethyl ketone]	99.8
O=[As]O[As]=O (stereo not given) [Arsenic trioxide]	108

same assay, conditions: 100 nM; 72 h

Structure (SMILES)	cell viability [%]
CC(=O)N1CCN(c2ccc(OC[C@@H]3CO[C@@](Cn4ccnc4)(c4ccc(Cl)cc4Cl)O3)cc2)CC1 (racemic) [Ketoconazole]	102
CCC(CC#N)OC(=O)N[C@@H](C)c1cccc(NC(=O)Nc2ccc(-c3cnco3)c(OC)c2)c1 (stereo in doubt) [AVN-944]	35.8
OC[C@H]1OC(O)C[C@@H](O)[C@@H]1O (stereo not given in full) [2-deoxyglucose]	100
O=C(C(=O)c1ccc(Br)cc1)c1ccc(Br)cc1 [4,4'-Dibromobenzil]	107
NS(=O)(=O)c1ccc(NC(=O)Cc2ccccc2)cc1 [4-(2-Phenylacetamido)Benzenesulfonamide]	95.7
NCc1ccc(S(N)(=O)=O)cc1 [4-Homosulfanilamide]	90.2
Oc1ncc(F)c(O)n1 [5-fluorouracil]	85
NCc1ccc(-c2cccnc2)s1 [(5-Pyrid-3-YLTHIEN-2-YL)METHYLAMINE]	104
CC(=O)N[C@@H](CS)C(=O)O [Acetylcysteine]	102
CCCCC/C=C\C/C=C\C/C=C\C/C=C\CCCC(=O)C(F)(F)F [Arachidonyl trifluoromethyl ketone]	101
O=[As]O[As]=O (stereo not given) [Arsenic trioxide]	104

same assay, conditions: 1000 nM; 72 h

Structure (SMILES)	cell viability [%]
CC(=O)N1CCN(c2ccc(OC[C@@H]3CO[C@@](Cn4ccnc4)(c4ccc(Cl)cc4Cl)O3)cc2)CC1 (racemic) [Ketoconazole]	98.2
CCC(CC#N)OC(=O)N[C@@H](C)c1cccc(NC(=O)Nc2ccc(-c3cnco3)c(OC)c2)c1 (stereo in doubt) [AVN-944]	-0.602
OC[C@H]1OC(O)C[C@@H](O)[C@@H]1O (stereo not given in full) [2-deoxyglucose]	92
O=C(C(=O)c1ccc(Br)cc1)c1ccc(Br)cc1 [4,4'-Dibromobenzil]	85.3
NS(=O)(=O)c1ccc(NC(=O)Cc2ccccc2)cc1 [4-(2-Phenylacetamido)Benzenesulfonamide]	91.3
NCc1ccc(S(N)(=O)=O)cc1 [4-Homosulfanilamide]	89.9
Oc1ncc(F)c(O)n1 [5-fluorouracil]	26.3
NCc1ccc(-c2cccnc2)s1 [(5-Pyrid-3-YLTHIEN-2-YL)METHYLAMINE]	110
CC(=O)N[C@@H](CS)C(=O)O [Acetylcysteine]	111
CCCCC/C=C\C/C=C\C/C=C\C/C=C\CCCC(=O)C(F)(F)F [Arachidonyl trifluoromethyl ketone]	97.6
O=[As]O[As]=O (stereo not given) [Arsenic trioxide]	95.1

same assay, conditions: 10000 nM; 72 h

Structure (SMILES)	cell viability [%]
CC(=O)N1CCN(c2ccc(OC[C@@H]3CO[C@@](Cn4ccnc4)(c4ccc(Cl)cc4Cl)O3)cc2)CC1 (racemic) [Ketoconazole]	54.7
CCC(CC#N)OC(=O)N[C@@H](C)c1cccc(NC(=O)Nc2ccc(-c3cnco3)c(OC)c2)c1 (stereo in doubt) [AVN-944]	-0.425
OC[C@H]1OC(O)C[C@@H](O)[C@@H]1O (stereo not given in full) [2-deoxyglucose]	110
O=C(C(=O)c1ccc(Br)cc1)c1ccc(Br)cc1 [4,4'-Dibromobenzil]	89.3
NS(=O)(=O)c1ccc(NC(=O)Cc2ccccc2)cc1 [4-(2-Phenylacetamido)Benzenesulfonamide]	86.6
NCc1ccc(S(N)(=O)=O)cc1 [4-Homosulfanilamide]	106
Oc1ncc(F)c(O)n1 [5-fluorouracil]	1.31
NCc1ccc(-c2cccnc2)s1 [(5-Pyrid-3-YLTHIEN-2-YL)METHYLAMINE]	89.6
CC(=O)N[C@@H](CS)C(=O)O [Acetylcysteine]	112
CCCCC/C=C\C/C=C\C/C=C\C/C=C\CCCC(=O)C(F)(F)F [Arachidonyl trifluoromethyl ketone]	85.9
O=[As]O[As]=O (stereo not given) [Arsenic trioxide]	20.4

test system: KCL-22; experiment: as above; conditions: 1 nM; 72 h
Procedure, shortened: as §1

Structure (SMILES)	cell viability [%]
CC(=O)N1CCN(c2ccc(OC[C@@H]3CO[C@@](Cn4ccnc4)(c4ccc(Cl)cc4Cl)O3)cc2)CC1 (racemic) [Ketoconazole]	98.4
CCC(CC#N)OC(=O)N[C@@H](C)c1cccc(NC(=O)Nc2ccc(-c3cnco3)c(OC)c2)c1 (stereo in doubt) [AVN-944]	94.6
OC[C@H]1OC(O)C[C@@H](O)[C@@H]1O (stereo not given in full) [2-deoxyglucose]	110
O=C(C(=O)c1ccc(Br)cc1)c1ccc(Br)cc1 [4,4'-Dibromobenzil]	95.4
NS(=O)(=O)c1ccc(NC(=O)Cc2ccccc2)cc1 [4-(2-Phenylacetamido)Benzenesulfonamide]	99.8
NCc1ccc(S(N)(=O)=O)cc1 [4-Homosulfanilamide]	99.7
Oc1ncc(F)c(O)n1 [5-fluorouracil]	98.9
NCc1ccc(-c2cccnc2)s1 [(5-Pyrid-3-YLTHIEN-2-YL)METHYLAMINE]	122
CC(=O)N[C@@H](CS)C(=O)O [Acetylcysteine]	117
CCCCC/C=C\C/C=C\C/C=C\C/C=C\CCCC(=O)C(F)(F)F [Arachidonyl trifluoromethyl ketone]	96.9
O=[As]O[As]=O (stereo not given) [Arsenic trioxide]	107

same assay, conditions: 10 nM; 72 h

Structure (SMILES)	cell viability [%]
CC(=O)N1CCN(c2ccc(OC[C@@H]3CO[C@@](Cn4ccnc4)(c4ccc(Cl)cc4Cl)O3)cc2)CC1 (racemic) [Ketoconazole]	117
CCC(CC#N)OC(=O)N[C@@H](C)c1cccc(NC(=O)Nc2ccc(-c3cnco3)c(OC)c2)c1 (stereo in doubt) [AVN-944]	114
OC[C@H]1OC(O)C[C@@H](O)[C@@H]1O (stereo not given in full) [2-deoxyglucose]	107
O=C(C(=O)c1ccc(Br)cc1)c1ccc(Br)cc1 [4,4'-Dibromobenzil]	87.2
NS(=O)(=O)c1ccc(NC(=O)Cc2ccccc2)cc1 [4-(2-Phenylacetamido)Benzenesulfonamide]	102
NCc1ccc(S(N)(=O)=O)cc1 [4-Homosulfanilamide]	107
Oc1ncc(F)c(O)n1 [5-fluorouracil]	120
NCc1ccc(-c2cccnc2)s1 [(5-Pyrid-3-YLTHIEN-2-YL)METHYLAMINE]	114

Reference: the supplement of paper PMC8671470
